Experimental findings from the supplement of paper PMC3493320 are described below.

As a reminder, the IC50 is the midpoint of a concentration-inhibition curve. Read a low IC50 as greater potency.

Some results are limits rather than exact numbers.

The subject of this assay is NCI-H295R. The assay can be described thus: IC50 (antiproliferative, ATP content). The settings on record: 48 h. In a few lines:
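Adrenocortical carcinoma cells in 1536-well plates (1500 per well, serum-free DMEM plus ITS, overnight culture) were exposed for 48 h at 37 °C, 5% CO2 to pin-transferred compounds at 8 final concentrations ranging 0.6 nM to 46 µM. ATP content was then read as CellTiter-Glo luminescence and normalised to vehicle and positive-control wells. The IC50 came from logistic curve fits, and any compound lacking a concentration response was recorded as above the top dose.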
`O=C(CCl)c1ccc(Oc2ccc(C(=O)CCl)cc2)cc1`: the IC50 was more than 46 µM.
For `C[C@@H](N)C(=O)O`, the IC50 is more than 46 µM.
The molecule `CCCCCCCCCCCCOS(=O)(=O)[O-].[Na+]` gave an IC50 of more than 46 µM.
`CC(=O)Nc1ccccc1`: the IC50 is more than 46 µM.
Take `O=C1CC2(CCCC2)CC(=O)N1CCCCN1CCN(c2ncccn2)CC1`: the IC50 was more than 46 µM.
With `CN1[C@@H]2CC[C@H]1C[C@@H](OC(=O)c1cc(Cl)cc(Cl)c1)C2` the figure was more than 46 µM.
The result for `CCOP(=S)(OCC)Oc1ccc2c(C)c(Cl)c(=O)oc2c1` reads more than 46 µM; that for `Clc1ccc2c(c1)C(N1CCNCC1)=Nc1ccccc1O2`, more than 46 µM.
Molecule `N=C(N)NCc1cccc(I)c1.N=C(N)NCc1cccc(I)c1.O=S(=O)(O)O` had an IC50 of more than 46 µM.
With `O=C1N(c2ccccc2)c2ccccc2C1(Cc1ccncc1)Cc1ccncc1` the figure was more than 46 µM.
With `COc1ccc(Cl)cc1C(=O)NCCc1ccc(S(=O)(=O)NC(=O)NC2CCCCC2)cc1` the figure was more than 46 µM; with `C[C@]12CC[C@@H]3c4ccc(O)cc4C[C@@H](CCCCCCCCCS(=O)CCCC(F)(F)C(F)(F)F)[C@H]3[C@@H]1CC[C@@H]2O` (some centres undefined), more than 46 µM.
As for `CCN(CC)C(=O)c1cccnc1`, the IC50 was more than 46 µM.
The result for `COCC(=O)N(c1c(C)cccc1C)C(C)C(=O)OC` (centres undefined) reads more than 46 µM; that for `CCN(CC)C(=O)/C(C#N)=C/c1cc(O)c(O)c([N+](=O)[O-])c1`, more than 46 µM.
`Nc1ccc(S(=O)(=O)Nc2ccccn2)cc1`: the IC50 was more than 46 µM.
The molecule `CN(C)CCCN1c2ccccc2C(C)(C)c2ccccc21` gave an IC50 of more than 46 µM.
Molecule `CCCCCCCCCCOc1cc2c(O)c(C(=O)OCC)cnc2cc1OCC` showed an IC50 of more than 46 µM.
With `CN1[C@@H]2CC[C@H]1C[C@@H](OC(=O)C(CO)c1ccccc1)C2` (some centres undefined) the figure was more than 46 µM; with `O=c1[nH]c(=O)c2ccccc2o1`, more than 46 µM.
Consider `CC(=O)[C@@]1(O)CC[C@H]2[C@@H]3CCC4=CC(=O)CC[C@]4(C)[C@H]3CC[C@@]21C`, for which the IC50 is more than 46 µM.
Turning to `C[C@H](N)[C@H](O)c1cccc(O)c1.O=C(O)[C@@H](O)[C@@H](O)C(=O)O`, the IC50 was more than 46 µM.
For the molecule `O=C([O-])P(=O)([O-])[O-].[Na+].[Na+].[Na+]`, the IC50 is more than 46 µM.
On to `CC(C)(C)NCC(O)c1ccc(O)c(CO)n1.Cl` (centres undefined), for which the IC50 was more than 46 µM.
Regarding `CCCCNc1cc(C(=O)O)cc(S(N)(=O)=O)c1Oc1ccccc1`, the IC50 was more than 46 µM.
With `C=C1c2cccc(O)c2C(=O)C2=C(O)[C@]3(O)C(=O)C(C(N)=O)=C(O)[C@@H](N(C)C)[C@@H]3[C@@H](O)[C@H]12.Cl` the figure was more than 46 µM.
The result for `CC(=O)N[C@@H](Cc1ccc(O)cc1)C(=O)O` reads more than 46 µM; that for `O=S(=O)([O-])O.[Na+]`, more than 46 µM; that for `ClC4=C(Cl)[C@]5(Cl)[C@@]2([H])[C@]([C@](Cl)4[C@](Cl)5Cl)([H])[C@H]3[C@@H]1O[C@@H]1[C@@H]2C3`, more than 46 µM.
For `CCOc1ccc2c(c1)C(C)=CC(C)(C)N2`, the IC50 was more than 46 µM.
The result for `CNC1CCCN(c2c(F)cc3c(=O)c(C(=O)O)cn(C4CC4)c3c2OC)C1` (centres undefined) reads more than 46 µM; that for `C[C@H](O)C(=O)Nc1c(I)c(C(=O)NC(CO)CO)c(I)c(C(=O)NC(CO)CO)c1I`, more than 46 µM.
For the molecule `O=c1[nH]cnc2nc[nH]c12`, the IC50 is more than 46 µM.
The result for `CO/N=C(\C(=O)N[C@@H]1C(=O)N2C(C(=O)O)=C(C[N+]3(C)CCCC3)CS[C@H]12)c1csc(N)n1.Cl.O.[Cl-]` reads more than 46 µM.
Turning to `C[C@@](Cc1ccc(O)c(O)c1)(NN)C(=O)O`, the IC50 is more than 46 µM.
With `COc1cc2c(cc1OC)[C@@H](Cc1cc(OC)c(OC)c(OC)c1)[N+](C)(CCCOC(=O)CC/C=C/CCC(=O)OCCC[N+]1(C)CCc3cc(OC)c(OC)cc3[C@H]1Cc1cc(OC)c(OC)c(OC)c1)CC2.[Cl-].[Cl-]` (some centres undefined) the figure was more than 46 µM; with `NC(=O)c1cc[n+](CC2=C(C(=O)[O-])N3C(=O)[C@@H](NC(=O)[C@H](c4ccccc4)S(=O)(=O)[O-])[C@@H]3SC2)cc1.[Na+]`, more than 46 µM.
As for `C[C@@H]1C[C@H]2[C@@H]3C[C@H](F)C4=CC(=O)C=C[C@]4(C)[C@@]3(F)[C@@H](O)C[C@]2(C)[C@@]1(O)C(=O)CO`, the IC50 was more than 46 µM.
Regarding `CCOC(=O)C(CS)NCCNC(CS)C(=O)OCC.Cl.Cl` (centres undefined), the IC50 is more than 46 µM.
The result for `CC(=O)Oc1cccc2c1C(=O)c1c(OC(C)=O)cc(C(=O)O)cc1C2=O` reads more than 46 µM; that for `Cc1ccccc1C(OCCN(C)C)c1ccccc1.O=C(O)CC(O)(CC(=O)O)C(=O)O` (centres undefined), more than 46 µM; that for `C[C@@H](Cc1ccccc1)N(C)C`, more than 46 µM.
`COCCCOc1ccnc(CS(=O)c2nc3ccccc3[n-]2)c1C.[Na+]` (centres undefined) had an IC50 of more than 46 µM.
As to `COc1ccc(C(=O)/C(Br)=C\C(=O)O)cc1`, the IC50 is more than 46 µM.
With `COc1ccc(CN(CCN(C)C)c2ncccn2)cc1.Cl`, the IC50 was more than 46 µM.
With `Nc1ccc(N)cc1`, the IC50 is more than 46 µM.
The result for `Br.CC(Cc1ccc(O)cc1)NCC(O)c1cc(O)cc(O)c1` (centres undefined) reads more than 46 µM; that for `CC(=O)N(CC(C)C(=O)O)c1c(I)cc(I)c(N)c1I` (centres undefined), more than 46 µM.
The result for `Cc1c(C(=O)NCCO)[n+]([O-])c2ccccc2[n+]1[O-]` reads more than 46 µM; that for `FC1=CC2=C(O[C@H]([C@@](N)=O)C[C@@]([C@@]3=O)2NC(N3)=O)C=C1`, more than 46 µM; that for `CCN(CC)CCC(=O)N1c2ccccc2Sc2ccc(Cl)cc21`, more than 46 µM.
In the case of `CC(C)(C)c1ccc(O)cc1`, the IC50 was more than 46 µM.
With `Cn1nnc2c(C(N)=O)ncn2c1=O` the figure was more than 46 µM; with `CN(C(=O)c1c(O)c2ccccc2n(C)c1=O)c1ccccc1`, more than 46 µM; with `Cc1ccc(S(=O)(=O)N[C@H](CCCCN)C(=O)CCl)cc1.Cl`, more than 46 µM.
The result for `[H][C@@]23N(CCC4=C3NC5=C4C=CC(OC)=C5)C[C@@]1([H])C[C@@H](OC(COC6=CC=C(OC)C=C6)=O)[C@H](OC)[C@@H]([C@@](OC)=O)[C@]([H])1C2` reads more than 46 µM.
The molecule `CCOc1ccccc1C(N)=O` gave a half-inhibitory concentration (IC50) of more than 46 µM.
The result for `CC(C)(C)NCC(O)c1ccc(O)c(CO)c1` (centres undefined) reads more than 46 µM.
With `O=[C@](CO)[C@]([C@H]2C1)(O[C@@](CCC)([H])O2)[C@](C[C@@H]3O)(C)[C@@]1([C@@]([C@@]([C@](C)4C=C5)3[H])(CCC4=CC5=O)[H])[H]` the figure was more than 46 µM.
`CCCc1nn(C)c2c(=O)[nH]c(-c3cc(S(=O)(=O)N4CCN(C)CC4)ccc3OCC)nc12.O=C(O)CC(O)(CC(=O)O)C(=O)O` showed an IC50 of more than 46 µM.
`O=C(Nc1ccc([N+](=O)[O-])cc1)Nc1ccc([N+](=O)[O-])cc1` came in with an IC50 of more than 46 µM.
With `CCC1(c2ccc(N)cc2)CCC(=O)NC1=O` (centres undefined) the figure was more than 46 µM; with `C[C@]12CC[C@@H]3c4ccc(OC(=O)c5ccccc5)cc4CC[C@H]3[C@@H]1CC[C@@H]2O`, more than 46 µM.
With `CC(C)(C(=O)c1cccnc1)c1cccnc1` the figure was more than 46 µM.
